Earlier results in patent publication US20130177630A1 (priority 2012, published 2013).

System: fibrolamellar hepatocellular carcinoma
Settings: patient with fibrolamellar hepatocellular carcinoma

In the case of `O=C(O)C(=O)CBr` [3-bromopyruvate], the side effects is listed as “severe side effects” and the “treatment outcome (survival)” value is listed as “life-extension characteristics”.
